Experimental data taken from ChEMBL document CHEMBL1177773, “Design, synthesis and anticancer activity of piperazine hydroxamates and their histone deacetylase (HDAC) inhibitory activity” (Bioorg Med Chem Lett, 2010).

Columns and labels:
NCI-H460 = experiment: Cytotoxicity against human NCI-H460 cells after 48 hrs by MTT assay; type: functional; conditions: for CC50: read-out: LC50 (the source's name)
HCT-116 = experiment: Cytotoxicity against human HCT116 cells after 48 hrs by MTT assay; type: functional; conditions: for CC50: read-out: LC50 (the source's name)
U-251 = experiment: Cytotoxicity against human U251 cells after 48 hrs by MTT assay; type: functional; conditions: for CC50: read-out: LC50 (the source's name)
Histone deacetylase 8 = biological target: T1, Histone deacetylase 8 (Homo sapiens, UniProt Q9BY41); experiment: Inhibition of human HDAC8
T1 sequence (Q9BY41 whole entry): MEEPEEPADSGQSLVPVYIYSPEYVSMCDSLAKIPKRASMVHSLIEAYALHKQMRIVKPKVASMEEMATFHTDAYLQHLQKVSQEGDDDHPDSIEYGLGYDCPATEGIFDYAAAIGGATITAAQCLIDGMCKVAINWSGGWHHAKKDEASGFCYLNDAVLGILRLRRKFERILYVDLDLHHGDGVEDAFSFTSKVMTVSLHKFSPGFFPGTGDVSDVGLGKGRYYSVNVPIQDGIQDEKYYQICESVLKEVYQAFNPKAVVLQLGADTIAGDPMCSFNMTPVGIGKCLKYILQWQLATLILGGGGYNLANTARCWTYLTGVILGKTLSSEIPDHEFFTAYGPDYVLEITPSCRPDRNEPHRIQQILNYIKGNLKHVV

HL-60 = experiment: Growth inhibition of human HL60 cells after 48 hrs; type: functional, cell-based; conditions: HL-60, 48 h

Row | SMILES | GI50 (NCI-H460; Homo sapiens, NCI-H460, 48 h) [µM] | CC50 (NCI-H460; Homo sapiens, NCI-H460, 48 h) [µM] | GI50 (HCT-116; Homo sapiens, HCT-116, 48 h) [µM] | CC50 (HCT-116; Homo sapiens, HCT-116, 48 h) [µM] | GI50 (U-251; Homo sapiens, U-251, 48 h) [µM] | CC50 (U-251; Homo sapiens, U-251, 48 h) [µM] | IC50 (Histone deacetylase 8) [µM] | IC50 (HL-60) [µM] | GI50 (NCI-H460) [µM] | CC50 (NCI-H460) [µM] | CC50 (HCT-116) [µM] | GI50 (U-251) [µM] | CC50 (U-251) [µM]
1 | O=C1Nc2ccccc2/C1=N/NC(=S)N1CCN(C(=O)NO)CC1 | > 100 | > 100 | > 100 | > 100 | > 100 | > 100 |  |  |  |  |  |  | 
2 | O=C(NO)N1CCN(C(=S)N/N=C/c2c3ccccc3cc3ccccc23)CC1 | 9.5 | > 100 | 70 | > 100 | 65 | > 100 |  |  |  |  |  |  | 
3 | O=C(NO)N1CCN(C(=S)N/N=C/c2ccccc2O)CC1 | 5.15 | > 100 | 8.6 | > 100 | 14.2 | > 100 | 33.7 | 0.6 |  |  |  |  | 
4 | O=C(NO)N1CCN(C(=S)N/N=C/c2ccc(Cl)cc2)CC1 | 16 | > 100 | 11.6 | > 100 | 8.5 | > 100 | 43.2 |  |  |  |  |  | 
5 | Cc1ccc(/C=N/NC(=S)N2CCN(C(=O)NO)CC2)cc1 | 51 | > 100 | 31 | > 100 | 27.5 | > 100 |  |  |  |  |  |  | 
6 | O=C(NO)N1CCN(C(=S)N/N=C/c2ccccc2Cl)CC1 | 30 | > 100 | 11.5 | > 100 | 13.5 | > 100 |  |  |  |  |  |  | 
7 | O=C(CCCCCCC(=O)Nc1ccccc1)NO [VORINOSTAT] |  |  |  |  |  |  |  |  | 8 | > 100 | > 100 | 6.5 | > 100
